Legend:
SU-DHL-4 model of DLBCL = assay: Western blot of treated cells; assay type: cell-based
Experimental: (§1) Cell lines shown in Table 1, adherent or suspension, were treated in 6-well dishes or T10 flasks respectively, seeded at one million per ml density prior to treatment in total volumes of 3-10 ml. All agents used for in vitro cell treatments were formulated in water/DMSO to achieve required concentrations (as stated in respective figure labels/legends) with DMSO concentrations not exceeding 0.01%. Drug sources are indicated in table under ‘CIVO microinjection studies’. Cells were harvested at experimental time points: 2, 6, or 24 hours post treatment as indicated in respective figures, first by washing cells twice in ice-cold PBS in 15 ml falcon tubes, centrifugation at 1000 rpm for 5 mins followed by lysis of the respective cell pellets as described in section below. Note: Drug resistant NUDHL1 Dox 1000 nM and Toledo Dox 1000 nM cell lines were generated at Presage by culturing parental lines in media with stepwise increments in Doxorubicin concentration over several passages. These cells were used to generate xenografts when resistance to 1 uM Dox was achieved.
Protein lysates were prepared by adding ice-cold 1×RIPA Buffer (from 10×, Millipore) with 1×-3× Halt protease and phosphatase inhibitor cocktail (100×, Pierce) to cell pellets, followed by pulse sonication (˜3-5 secs) three times. Lysates were cleared by centrifugation at 14K rpm for 15-20 mins and the supernatant (lysate) was collected for further analysis. To prepare lysates from cryopreserved xenograft tumor tissue, tissue was first homogenized using a hand-held tissue homogenizer (Cole Palmer) in above lysis buffer followed by pulse sonication and centrifugation as described above. Above steps were carried out under ice cold conditions. Protein samples were quantified using Bradford assay (Biorad) at 1:10 or higher dilutions using appropriate blank controls with 1×RIPA. 20-25 micrograms of protein from each sample were subject to SDS-PAGE using BOLT 4-12% Bis-Tris gels (Thermofisher) and transferred to either 0.45 or 0.2 micron pore size membranes (as applicable based on protein molecular size), and either nitrocellulose (NC) or pvdf (Thermofisher) using manufacturer's protocol, blocked for one hour in 5% milk at room temperature, probed with primary antibodies (Table 2) at 4 deg C. overnight and corresponding HRP-conjugated secondary antibodies (Jackson Immunoresearch, 1:10,000-1:20,000 dilutions) for 1 hour at room temperature. Three PBS/0.01% Tween-20 washes (5-10 mins each) were carried out after each antibody incubation. ECL chemiluminescent substrate (Pierce or GE) and autoradiographic film (Thermofisher) was used for detection of protein signals.
Cleaved PARP (cPARP) may be used as a biomarker of apoptosis. […] Cells were exposed to drug for 24 h prior to cell lysis and examination by Western Blot using antibodies specific for the cleaved form of PARP, MCL-1, C-MYC, and Beta actin (as a protein loading control) of FIG. 22A and BCL2 as an additional protein loading control in FIG. 22B.
Cleaved PARP (cPARP) may be used as a biomarker of apoptosis. To assess combination efficacy of the two agents of voruciclib and venetoclax together, low doses of each were examined as single agents or as a combination in the three models of DLBCL. Cells were exposed to drug for 24 h prior to cell lysis and examination by Western Blot using antibodies specific for the cleaved form of PARP and Beta actin (as a protein loading control).
FIG. 33 illustrates that voruciclib-induced apoptosis correlates with repression of MCL-1. Three DLBCL models were used: SUDHL4, RIvA, and U2932. Cleaved PARP (cPARP) may be used as a biomarker of apoptosis.

OCI Ly10 model of DLBCL = assay: Western blot of treated cells; assay type: cell-based; conditions: 5 uM voruciclib, 50 nM venetoclax; 24 h
Experimental: as §1, with “These cells were used to generate xenografts when resistance to 1 uM Dox was achieved.” left out
Protein lysates were prepared by adding ice-cold 1×RIPA Buffer (from 10×, Millipore) with 1×-3× Halt protease and phosphatase inhibitor cocktail (100×, Pierce) to cell pellets, followed by pulse sonication (˜3-5 secs) three times. […] Protein samples were quantified using Bradford assay (Biorad) at 1:10 or higher dilutions using appropriate blank controls with 1×RIPA. […]

NUDHL1 model of DLBCL = assay: Xenograft tumor growth; assay type: in vivo, NOD SCID mice; conditions: Voruciclib 200 mpk, Venetoclax 50 mpk
Experimental: Immune deficient NOD SCID mice were implanted with the NUDHL1 model of DLBCL. The xenografted tumors were allowed to grow in the NOD SCID host until they reached 200 mm^3, at which point the xenografted animals were randomized into 4 study groups: 1. Vehicle control; 2. […] Venetoclax at 50 mpk; and 4. […] Venetoclax was dosed by oral gavage on days 1 and 4 of each weekly cycle. Drug effects were assessed via tumor volume measurements twice weekly by a technician blinded to the treatment of each subject in the study. N=5-6 animals per treatment arm.

[1] = 0.15 uM voruciclib, 20 nM venetoclax, 24 h
[2] = increasing concentration of voruciclib, single agent

SMILES: CN1CC[C@@H](c2c(O)cc(O)c3c(=O)cc(-c4ccc(C(F)(F)F)cc4Cl)oc23)[C@@H]1CO (relative stereo) [voruciclib, (+)-trans-2-(2-Chloro-4-trifluoromethylphenyl)-5,7-dihydroxy-8-(2-hydroxymethyl-1-methylpyrrolidin-3-yl)-chromen-4-one]
- venetoclax-induced MCL-1 (SU-DHL-4 model of DLBCL; 0.15 uM voruciclib with 20 nM venetoclax, 24 h): represses
- MCL-1 expression (SU-DHL-4 model of DLBCL; [1]): maintains some efficacy for repressing
- apoptosis (cleaved PARP) (SU-DHL-4 model of DLBCL; [1]): neither compound induces apoptosis as a single agent
- MCL-1 (SU-DHL-4 model of DLBCL; [2]): suppresses
- apoptosis (cPARP) (SU-DHL-4 model of DLBCL; [2]): increases as the concentration of voruciclib increases
- MCL1 (SU-DHL-4 model of DLBCL; voruciclib 1.5 uM, 24 h, Western blot): suppresses
- apoptosis (cleaved PARP) (OCI Ly10 model of DLBCL): neither compound significantly induces apoptosis as a single agent
- tumor size (images) (NUDHL1 model of DLBCL): smaller

From US12171744B2, “Pharmaceutical combinations for the treatment of cancer” (Presage Biosciences, Inc., priority 2016, dated 2024)
